The values that follow come from patent US11612601B1, “Targeting epidermal growth factor to treat vascular calcification” (THE FLORIDA INTERNATIONAL UNIVERSITY BOARD OF TRUSTEES, priority 2022, dated 2023).

Structures are written as SMILES.

The subject of assay [1] is Osteoblasts (hFOB 1.19). Put plainly: Matrix vesicles from osteoblast cultures: CAV1 and TNAP activity. Type of assay: cell-based, human. The conditions noted are these: OS + 2.5 μM. As to the method: Osteoblasts (from human fetus, hFOB 1.19, ATCC, CRL-11372) were cultured and grown in DMEM containing 10% v/v bovine calf serum and 1% v/v penicillin-streptomycin. Osteoblasts (passage 4-6) were harvested using 0.25% trypsin-EDTA solution (Caisson Labs, TRL01), seeded with a density of 5,200 cell.cm^−2, and incubated for 24 hours at 37° C. and 5% CO2 with controlled humidity. The cells were treated in three groups of control, OS, and OS supplemented with tyrphostin AG1478 (2.5 μM) for 21 days and media changed every three days. […] Similar to the VSMC experiments, EV-free media were added to the cultures on days 6, 13, and 20, and collected 24 hours later on days 7, 14, and 21. Collected media were centrifuged at 1,000×g for 5 min to remove cell debris. EVs were isolated using the ultracentrifugation at 100,000×g for 1 hour.
For EV TNAP activity measurement, after ultracentrifugation at 100,000×g for 1 hour, the pellets were re-suspended in 120 μL buffer assay. […]
To quantify the total protein, the membranes were stained using 2% w/v Ponceau stain (Alfa Aesar, AAJ6074409) for 20 min, followed by one wash with 5% acetic acid and milliQ water for 5 min. After imaging, the intensity of each lane was measured in ImageJ for total protein normalization. […] The protein bands were visualized with Odyssey CLx scanner (Li-Cor), and quantified using Image Studio Lite software (Li-Cor).

For assay [2], the system named is Primary human coronary artery vascular smooth muscle cells. Put plainly: In vitro calcification of VSMCs, Alizarin Red S staining. Type of assay: cell-based. The conditions noted are these: OS media, 2.5 μM, 28 days. Here is the method: Primary human coronary artery vascular smooth muscle cells, (VSMCs, ATCC, PCS-100-021) were cultured using vascular smooth muscle cell media and growth kit (ATCC, PCS-100-042). VSMCs (passage 4-6) were harvested using 0.05% trypsin-EDTA solution (Caisson Labs, TRL04) and seeded with a density of 26,320 cells.cm^−2 and incubated for 72 hours at 37° C., 5% CO2 with controlled humidity prior to treatment. VSMCs were treated with either control media, consisting of DMEM (HyClone, SH30022.01), 10% v/v bovine calf serum (iron-supplemented, R&D Systems, S11950), and 1% v/v penicillin-streptomycin (Gibco, 15070-063), or with an osteogenic media (OS) optimized to induce calcification. OS media were supplemented with 10 mM β-glycerophosphate (Sigma, 13408-09-8), 0.1 mM L-ascorbic acid (Sigma, 113170-55-1), and 10 nM dexamethasone (Sigma, 50-02-2).
To assess the role of EGFR inhibition, tyrphostin AG1478 (Millipore Sigma, T4182) was dissolved in vehicle (DMSO:Methanol, 1:1) and added to OS media to a final concentration of 2.5 μM. An equal volume of vehicle was added to the control and OS groups. […]
To quantify the in vitro calcification, ARS stain was extracted using acetic acid (1.67 M, Fisher Chemical, A38S) on a shaker. […] Sample absorbance of 405 nm was measured using a multi-mode reader (BioTek, Synergy HTX).

The subject of assay [3] is CKD mice. Put plainly: Serum EGFR level and serum TNAP activity in CKD mice. Type of assay: in vivo, mouse. To be noted: 10 mg/kg daily, vs CKD.
Method: Along with this calcifying diet, a group of mice (n=19) received daily tyrphostin AG1478 (10 mg/kg mouse, Millipore Sigma, T4182) via oral gavage. The remaining mice (n=19) received vehicle treatment (1% w/v, carboxymethylcellulose sodium salt, Sigma, C5678). For non-diseased controls, a third group of mice (n=12, 6 per biological sex) were fed a regular chow diet and received the vehicle for the final two weeks. During the oral gavage, animals were partially anesthetized using isoflurane (1%, Patterson Veterinary, 07-893-1389, in 2 L.min^−1 oxygen flow). […] At study endpoint, mice were anesthetized with isoflurane (1%, in 2 L.min^−1 oxygen flow) followed by retro-orbital bleeding for blood collection. Mice were then immediately euthanized by laceration of the diaphragm before tissue collection. […] For mice serum TNAP activity, the samples were diluted 1:20 and assessment was performed according to the manufacturer's protocol.

Turning to `COc1cc2ncnc(Nc3cccc(Cl)c3)c2cc1OC` [AG1478, tyrphostin AG1478], the “CAV1 protein on matrix vesicles released by osteoblasts” value in assay [1] (compared to control, days 14 and 21) was “lower levels”. Moreover, the “TNAP activity of matrix vesicles released by osteoblasts” value in assay [1] (days 7, 14, 21) is “significantly increased”. Besides, in assay [2], the “in vitro calcification of VSMCs (ARS staining)” value is listed as “abrogated”. Further, the “serum TNAP activity” value in assay [3] (p=0.06) is listed as “did not significantly reduce”. The “level of serum EGFR” value in assay [3] (p=0.78) is on record as “no significant difference”.
